From paper PMC10427817, “Bioactivities of β-mangostin and its new glycoside derivatives synthesized by enzymatic reactions” (Royal Society Open Science, 2023)
Values after ≈ are worked out from the molar mass of the structure shown. Where two headings read alike, the source gives them in different places.

Tests used:
[1] = system: KB epidermal carcinoma; assay: MTT cytotoxicity assay, KB; assay type: cell-based, human; settings: Homo sapiens, KB cell line, 72 h, mean ± s.d., three replicates
Description: (§1) The cytotoxic activities against the cancer cell lines KB epidermal carcinoma, A549 lung cancer, HepG2 liver cancer and MCF-7 breast cancer, as well as the healthy cell line HEK293 embryonic kidney cells, were determined using the 3-(4,5-dimethylthiazol-2-yl)-2,5-diphenyltetrazolium bromide (MTT) assay. Briefly, cell lines were grown into log phase at 37°C, 5% CO2 in DMEM-Dulbecco's modified Eagle's medium and 10% fetal bovine serum. A concentration of 1 × 10^4–3 × 10^4 cells ml^−1 was prepared depending on the cell line used for the experiment by adding 10 µl of the sample and 190 µl of the cell suspension, followed by incubation under standard conditions. After 72 h of culture, 10 µl of MTT (5 mg ml^−1) was added and incubated for 4 h. Dimethyl sulfoxide (100 µl) was added to dissolve formazan crystals and the density was measured at 540 nm using a BioTek spectrophotometer. The inhibition of cell growth was expressed as IC50 (the half-maximal inhibitory concentration) value.

[2] = system: MCF-7 breast cancer; assay: MTT cytotoxicity assay, MCF-7; assay type: cell-based, human; settings: Homo sapiens, MCF7, MCF-7 cell line, 72 h, mean ± s.d., three replicates
Description: as §1

[3] = system: A549 lung cancer; assay: MTT cytotoxicity assay, A549; assay type: cell-based, human; settings: Homo sapiens; A549 cell line, MTT, 72 h, mean ± s.d., three replicates; read-out: IC50
Description: as §1, with “value. Ellipticine was used as reference.” for “value.”

[4] = system: HepG2 liver cancer; assay: MTT cytotoxicity assay, HepG2; assay type: cell-based, human; settings: Homo sapiens, HepG2 cell line, 72 h, mean ± s.d., three replicates
Description: as §1, with “value. Ellipticine was used as reference.” for “value.”

[5] = system: HEK293 embryonic kidney cells; assay: MTT cytotoxicity assay, HEK293; assay type: cell-based, human; settings: Homo sapiens, HEK293 healthy cell line, 72 h, mean ± s.d., three replicates
Description: as §1, with “value. Ellipticine was used as reference.” for “value.”

[6] = system: KB, MCF-7, A549, HepG2, HEK293 cell lines; assay: MTT cytotoxicity assay, range over all tested cell lines; assay type: cell-based, human; settings: Homo sapiens; range over all tested cell lines, MTT, 72 h
Description: as §1, with “value. Ellipticine was used as reference.” for “value.”

[7] = system: Staphylococcus aureus; assay: Anti-microbial activity assay, S. aureus; assay type: cell-based; settings: S. aureus
Description: (§2) Bacterial and fungal strains (Bacillus subtilis, Staphylococcus aureus, Lactobacillus fermentum, Escherichia coli, Pseudomonas aeruginosa, Salmonella enterica and Candida albicans) were activated on TSA (Tryptic Soy Agar) and SA (Sabouraud–4% dextrose agar) media, respectively. Before the experiment, the microbial strains were grown in the corresponding liquid media at a concentration of approximately 5 × 10^5 CFU ml^−1 for bacteria and 1 × 10^3 CFU ml^−1 for fungi. The microbial suspension (190 µl) was mixed with 10 µl of the test sample, which was serially diluted twofold, and the microplate was incubated at 37°C for 16–24 h.

[8] = system: Bacillus subtilis; assay: Anti-microbial activity assay, B. subtilis; assay type: cell-based; settings: B. subtilis
Description: as §2

[9] = system: Lactobacillus fermentum; assay: Anti-microbial activity assay, L. fermentum; assay type: cell-based; settings: L. fermentum
Description: as §2

[10] = system: Salmonella enterica; assay: Anti-microbial activity assay, S. enterica; assay type: cell-based
Description: as §2

[11] = system: Escherichia coli; assay: Anti-microbial activity assay, E. coli; assay type: cell-based
Description: as §2

[12] = system: Pseudomonas aeruginosa; assay: Anti-microbial activity assay, P. aeruginosa; assay type: cell-based
Description: as §2

[13] = system: Candida albicans; assay: Anti-microbial activity assay, C. albicans; assay type: cell-based
Description: as §2

[14] = system: MCF-7 cell line; set-up: method as in doi:10.1016/j.jff.2013.10.018; settings: cited from earlier work
[15] = system: HeLa cervical cancer cells; set-up: method as in PMID 26781450; settings: cited from earlier work
[16] = system: C6 cells; set-up: method as in PMID 34896543; settings: C6 glioma cells; read-out: IC50, cell survival; cited from earlier work
[17] = system: U251 cells; set-up: method as in PMID 34896543; settings: U251 glioma cells; read-out: IC50, cell survival; cited from earlier work
[18] = system: T89G cells; set-up: method as in PMID 34896543; settings: T89G glioma cells; read-out: IC50, cell survival; cited from earlier work
[19] = target: α-glucosidase; settings: ref 44; read-out: IC50, α-glucosidase inhibitory activity; cited from earlier work
[20] = system: Enterococcus (VRE; vancomycin-resistant strain); set-up: method as in PMID 22494050; settings: cited from earlier work
[21] = system: hepatocellular carcinoma cell lines (Huh-7, SK-Hep-1, HA22T/VGH cell lines); settings: cited from earlier work
[22] = system: HeLa and SiHa cells; settings: cited from earlier work

## COc1cc2oc3cc(O)c(OC)c(CC=C(C)C)c3c(=O)c2c(O)c1CC=C(C)C [β-mangostin]
[1]
  IC50: 21.1 ± 9.9 µM
[2]
  IC50: 18 ± 8.1 µM
[3]
  IC50: 15.4 ± 5.1 µM
[4]
  IC50: 18.9 ± 7.6 µM
[5]
  IC50: 15.6 ± 6.5 µM
[6]
  IC50: 15.4 to 21.1 µM
[7]; read-out: IC50
  IC50: 1.24 ± 0.05 µg/mL (≈ 2.92 µM)
[7]; read-out: MIC
  MIC: > 32 µg/mL
[8]; read-out: IC50
  IC50: 0.16 ± 0.01 µg/mL (≈ 0.377 µM)
[8]; read-out: MIC
  MIC: 0.5 µg/mL (≈ 1.18 µM)
[9]; read-out: IC50
  IC50: 0.18 ± 0.01 µg/mL (≈ 0.424 µM)
[9]; read-out: MIC
  MIC: 0.5 µg/mL (≈ 1.18 µM)
[10]
  IC50: > 32 µg/mL
  MIC: > 32 µg/mL
[11]
  MIC: greater than 32 μg ml^−1
[11]; Escherichia coli
  IC50: > 32 µg/mL
[11]; Escherichia coli, read-out: MIC
  MIC: > 32 µg/mL
[12]
  MIC: greater than 32 μg ml^−1
[12]; Pseudomonas aeruginosa
  IC50: > 32 µg/mL
[12]; Pseudomonas aeruginosa, read-out: MIC
  MIC: > 32 µg/mL
[13]
  MIC: greater than 32 μg ml^−1
[13]; Candida albicans, read-out: IC50
  IC50: > 32 µg/mL
[13]; Candida albicans, read-out: MIC
  MIC: > 32 µg/mL
[14]; MCF-7, 24 h treatment
  IC50: 26 µM
[14]; MCF-7, 48 h treatment
  IC50: 16.5 µM
[15]
  IC50: 27.2 µM
[16]
  IC50: 4.8 µM
[17]
  IC50: 5.8 µM
[18]
  IC50: 10.3 µM
[19]
  IC50: 14.4 µM
[20]
  MIC: > 200 µg/mL
[21]
  cytotoxicity or cell cycle suppression: did not cause cytotoxicity or cell cycle suppression
[22]
  cytotoxicity or cell cycle suppression: did not cause cytotoxicity or cell cycle suppression
